Data reported in US10172843B2, “Piperidine derivatives” (Hoffmann-La Roche Inc., priority 2014, dated 2019).

Biological target: human Cat S (Homo sapiens (Human), UniProt P25774)
Assay: Cathepsin enzyme inhibition assay (fluorogenic peptide substrate)
Type: biochemical
Conditions: human Cat S, enzyme 1 nM, substrate Z-Val-Val-Arg-AMC, pH 6.5; read-out: CatS IC50
Procedure: Cathepsin Enzyme Inhibition Assay
Enzyme activity is measured by observing the increase in fluorescence intensity caused by cleavage of a peptide substrate containing a fluorophore whose emission is quenched in the intact peptide.
Assay buffer: 100 mM potassium phosphate pH 6.5, EDTA-Na 5 mM, Triton X-100 0.001%, DTT 5 mM.
Enzymes (all at 1 nM): human and mouse Cathepsin S, Cat K, Cat B, Cat L.
Substrate ([…], except for Cat K which uses Z-Leu-Arg-AMC (both from Bachem).
Excitation 360 nm, Emission 465 nm.
Enzyme is added to the substance dilutions in 96-well microtitre plates and the reaction is started with substrate. […] IC50 are calculated by standard methods.
Inhibition of human Cat S, mouse Cat S, human Cat K, mouse Cat K, human Cat B, mouse Cat B, human Cat L and mouse Cat L have been measured separately.

Chain of human Cat S (P25774 115-331): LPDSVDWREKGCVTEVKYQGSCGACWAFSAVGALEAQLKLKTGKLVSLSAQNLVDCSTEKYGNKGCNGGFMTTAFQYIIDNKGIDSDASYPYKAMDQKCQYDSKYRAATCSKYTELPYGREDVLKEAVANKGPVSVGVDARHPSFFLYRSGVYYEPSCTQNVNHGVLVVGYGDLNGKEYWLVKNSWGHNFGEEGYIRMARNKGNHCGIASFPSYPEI

Point of comparison: `COCCn1c(-c2ccc(C(F)(F)F)cc2)nc(CN2CCC(N3Cc4ccccc4NC3=O)CC2)c1C` [Example 76, 3-{1-[1-(2-Methoxy-ethyl)-5-methyl-2-(4-trifluoromethyl-phenyl)-1H-imidazol-4-ylmethyl]-piperidin-4-yl}-3,4-dihydro-1H-quinazolin-2-one], IC50 317 nM. Against it:
- Cc1[nH]c(-c2ccc(S(=O)(=O)C(F)(F)F)cc2)nc1CN1CCC(n2c(=O)n(C)c3ccccc32)CC1 [Example 75, 1-Methyl-3-{1-[5-methyl-2-(4-trifluoromethanesulfonyl-phenyl)-1H-imidazol-4-ylmethyl]-piperidin-4-yl}-1,3-dihydro-benzoimidazol-2-one] — 5.3-fold lower, 60 nM
- Cc1[nH]c(-c2ccc(S(=O)(=O)C(F)(F)F)cc2)nc1CN1CCC(c2c[nH]c3ccncc23)CC1 [Example 77, 3-{1-[5-Methyl-2-(4-trifluoromethanesulfonyl-phenyl)-1H-imidazol-4-ylmethyl]-piperidin-4-yl}-1H-pyrrolo[3,2-c]pyridine] — 2-fold lower, 155 nM
- Cc1[nH]c(-c2ccc(S(=O)(=O)CC(C)C)cc2)nc1CN1CCC(N2Cc3ccccc3NC2=O)CC1 [Example 78, 3-(1-{5-Methyl-2-[4-(2-methyl-propane-1-sulfonyl)-phenyl]-1H-imidazol-4-ylmethyl}-piperidin-4-yl)-3,4-dihydro-1H-quinazolin-2-one] — 3.4-fold higher, 1070 nM
- Cc1[nH]c(-c2ccc(S(=O)(=O)CC(C)C)cc2)nc1CN1CCC(n2c(=O)n(C)c3ccccc32)CC1 [Example 79, 1-Methyl-3-(1-{5-methyl-2-[4-(2-methyl-propane-1-sulfonyl)-phenyl]-1H-imidazol-4-ylmethyl}-piperidin-4-yl)-1,3-dihydro-benzoimidazol-2-one] — 9.1-fold higher, 2870 nM
- Cc1[nH]c(-c2ccc(S(=O)(=O)Cc3ccccc3)cc2)nc1CN1CCC(N2Cc3ccccc3NC2=O)CC1 [Example 80, 3-{1-[5-Methyl-2-(4-phenylmethanesulfonyl-phenyl)-1H-imidazol-4-ylmethyl]-piperidin-4-yl}-3,4-dihydro-1H-quinazolin-2-one] — 3.2-fold lower, 99 nM
- Cc1[nH]c(-c2ccc(S(=O)(=O)Cc3ccccc3)cc2)nc1CN1CCC(n2c(=O)n(C)c3ccccc32)CC1 [Example 81, 1-Methyl-3-{1-[5-methyl-2-(4-phenylmethanesulfonyl-phenyl)-1H-imidazol-4-ylmethyl]-piperidin-4-yl}-1,3-dihydro-benzoimidazol-2-one] — 1.9-fold lower, 170 nM
